Converted amounts (≈) assume the structure as drawn.
What was measured:
Assay type in all cases: functional
Mycobacterium kansasii [1] = test: Antimycobacterial activity against Mycobacterium kansasii 6509/96 after 7 days by micromethod; conditions: 6509/96, 168 h
Mycobacterium kansasii [2] = test: Antimycobacterial activity against Mycobacterium kansasii CNCTC My 235/80 after 21 days by micromethod; conditions: CNCTC My 235/80, 504 h
Mycobacterium kansasii [3] = test: Antimycobacterial activity against Mycobacterium kansasii CNCTC My 235/80 after 7 days by micromethod; conditions: CNCTC My 235/80, 168 h
Mycobacterium avium [4] = test: Antimycobacterial activity against Mycobacterium avium CNCTC My 330/88 after 14 days by micromethod; conditions: CNCTC My 330/88, 336 h
Mycobacterium kansasii [5] = test: Antimycobacterial activity against Mycobacterium kansasii CNCTC My 235/80 after 14 days by micromethod; conditions: CNCTC My 235/80, 336 h
[6] = system: Mycobacterium tuberculosis; test: Antimycobacterial activity against Mycobacterium tuberculosis CNCTC My 331/88 after 21 days by micromethod; conditions: CNCTC My 331/88, 504 h
Mycobacterium kansasii [7] = test: Antimycobacterial activity against Mycobacterium kansasii 6509/96 after 14 days by micromethod; conditions: 6509/96, 336 h
Mycobacterium avium [8] = test: Antimycobacterial activity against Mycobacterium avium CNCTC My 330/88 after 21 days by micromethod; conditions: CNCTC My 330/88, 504 h
Mycobacterium kansasii [9] = test: Antimycobacterial activity against Mycobacterium kansasii 6509/96 after 21 days by micromethod; conditions: 6509/96, 504 h
[10] = system: Mycobacterium tuberculosis; test: Antimycobacterial activity against Mycobacterium tuberculosis CNCTC My 331/88 after 14 days by micromethod; conditions: CNCTC My 331/88, 336 h

Row | SMILES | MIC (Mycobacterium kansasii [1]) [µM] | MIC (Mycobacterium kansasii [2]) [µM] | MIC (Mycobacterium kansasii [3]) [µM] | MIC (Mycobacterium avium [4]) [µM] | MIC (Mycobacterium kansasii [5]) [µM] | MIC [6] [µM] | MIC (Mycobacterium kansasii [7]) [µM] | MIC (Mycobacterium avium [8]) [µM] | MIC (Mycobacterium kansasii [9]) [µM] | MIC [10] [µM]
1 | O=[N+]([O-])c1cc(CSCc2ccccc2)cc([N+](=O)[O-])c1 | 125 (≈ 38 µg/mL) | 125 (≈ 38 µg/mL) | 125 (≈ 38 µg/mL) | 125 (≈ 38 µg/mL) | 125 (≈ 38 µg/mL) | 250 (≈ 76.1 µg/mL) | 125 (≈ 38 µg/mL) | 125 (≈ 38 µg/mL) | 125 (≈ 38 µg/mL) | 250 (≈ 76.1 µg/mL)
2 | COc1cccc(-n2nnnc2SCc2cc([N+](=O)[O-])cc([N+](=O)[O-])c2)c1 | 125 (≈ 48.5 µg/mL) | 125 (≈ 48.5 µg/mL) | 125 (≈ 48.5 µg/mL) | 125 (≈ 48.5 µg/mL) | 125 (≈ 48.5 µg/mL) | 4 (≈ 1.55 µg/mL) | 125 (≈ 48.5 µg/mL) | 125 (≈ 48.5 µg/mL) | 125 (≈ 48.5 µg/mL) | 2 (≈ 0.777 µg/mL)
3 | O=[N+]([O-])c1cc(CSc2nnnn2-c2ccccc2)cc([N+](=O)[O-])c1 | 2 (≈ 0.717 µg/mL) | 16 (≈ 5.73 µg/mL) | 2 (≈ 0.717 µg/mL) | 62 (≈ 22.2 µg/mL) | 4 (≈ 1.43 µg/mL) | 4 (≈ 1.43 µg/mL) | 2 (≈ 0.717 µg/mL) | 62 (≈ 22.2 µg/mL) | 4 (≈ 1.43 µg/mL) | 4 (≈ 1.43 µg/mL)
4 | O=[N+]([O-])c1cc(C[Se]c2nnnn2-c2ccc(Br)cc2)cc([N+](=O)[O-])c1 | 2 (≈ 0.968 µg/mL) | 4 (≈ 1.94 µg/mL) | 2 (≈ 0.968 µg/mL) | 125 (≈ 60.5 µg/mL) | 4 (≈ 1.94 µg/mL) | 2 (≈ 0.968 µg/mL) | 4 (≈ 1.94 µg/mL) | 125 (≈ 60.5 µg/mL) | 8 (≈ 3.87 µg/mL) | 2 (≈ 0.968 µg/mL)
5 | O=[N+]([O-])c1cc(CSc2nnnn2-c2ccc(Cl)cc2)cc([N+](=O)[O-])c1 | 2 (≈ 0.786 µg/mL) | 4 (≈ 1.57 µg/mL) | 2 (≈ 0.786 µg/mL) | 125 (≈ 49.1 µg/mL) | 4 (≈ 1.57 µg/mL) | 2 (≈ 0.786 µg/mL) | 4 (≈ 1.57 µg/mL) | 125 (≈ 49.1 µg/mL) | 4 (≈ 1.57 µg/mL) | 1 (≈ 0.393 µg/mL)
6 | O=[N+]([O-])c1cc(C[Se]c2nnnn2-c2ccccc2)cc([N+](=O)[O-])c1 | 16 (≈ 6.48 µg/mL) | 16 (≈ 6.48 µg/mL) | 8 (≈ 3.24 µg/mL) | 32 (≈ 13 µg/mL) | 8 (≈ 3.24 µg/mL) | 8 (≈ 3.24 µg/mL) | 16 (≈ 6.48 µg/mL) | 32 (≈ 13 µg/mL) | 32 (≈ 13 µg/mL) | 8 (≈ 3.24 µg/mL)
7 | CCN(CC)c1ccc(-n2nnnc2SCc2cc([N+](=O)[O-])cc([N+](=O)[O-])c2)cc1 | 8 (≈ 3.44 µg/mL) | 32 (≈ 13.7 µg/mL) | 4 (≈ 1.72 µg/mL) | 62 (≈ 26.6 µg/mL) | 8 (≈ 3.44 µg/mL) | 2 (≈ 0.859 µg/mL) | 16 (≈ 6.87 µg/mL) | 62 (≈ 26.6 µg/mL) | 62 (≈ 26.6 µg/mL) | 2 (≈ 0.859 µg/mL)
8 | Nn1nnnc1SCc1cc([N+](=O)[O-])cc([N+](=O)[O-])c1 | 16 (≈ 4.76 µg/mL) | 32 (≈ 9.51 µg/mL) | 8 (≈ 2.38 µg/mL) | 1000 (≈ 297 µg/mL) | 32 (≈ 9.51 µg/mL) | 16 (≈ 4.76 µg/mL) | 32 (≈ 9.51 µg/mL) | 1000 (≈ 297 µg/mL) | 32 (≈ 9.51 µg/mL) | 8 (≈ 2.38 µg/mL)
9 | COc1cc(-n2nnnc2OCc2cc([N+](=O)[O-])cc([N+](=O)[O-])c2)cc(OC)c1OC | 16 (≈ 6.92 µg/mL) | 32 (≈ 13.8 µg/mL) | 8 (≈ 3.46 µg/mL) | 32 (≈ 13.8 µg/mL) | 16 (≈ 6.92 µg/mL) | 16 (≈ 6.92 µg/mL) | 32 (≈ 13.8 µg/mL) | 32 (≈ 13.8 µg/mL) | 62 (≈ 26.8 µg/mL) | 16 (≈ 6.92 µg/mL)
10 | c1ccc(C[Se]c2nnnn2-c2ccccc2)cc1 | 32 (≈ 10.1 µg/mL) | 16 (≈ 5.04 µg/mL) | 2 (≈ 0.63 µg/mL) | 62 (≈ 19.5 µg/mL) | 8 (≈ 2.52 µg/mL) | 125 (≈ 39.4 µg/mL) | 125 (≈ 39.4 µg/mL) | 125 (≈ 39.4 µg/mL) | 250 (≈ 78.8 µg/mL) | 125 (≈ 39.4 µg/mL)
11 | COc1ccc(-n2nnnc2SCc2cc(N)cc(N)c2)cc1 | 250 (≈ 82.1 µg/mL) | 1000 (≈ 328 µg/mL) | 250 (≈ 82.1 µg/mL) | 1000 (≈ 328 µg/mL) | 1000 (≈ 328 µg/mL) | 125 (≈ 41.1 µg/mL) | 1000 (≈ 328 µg/mL) | 1000 (≈ 328 µg/mL) | 1000 (≈ 328 µg/mL) | 125 (≈ 41.1 µg/mL)
12 | O=[N+]([O-])c1cc(CSc2nnn[nH]2)cc([N+](=O)[O-])c1 | 250 (≈ 70.6 µg/mL) | 1000 (≈ 282 µg/mL) | 250 (≈ 70.6 µg/mL) | 1000 (≈ 282 µg/mL) | 1000 (≈ 282 µg/mL) | 1000 (≈ 282 µg/mL) | 500 (≈ 141 µg/mL) | 1000 (≈ 282 µg/mL) | 500 (≈ 141 µg/mL) | 1000 (≈ 282 µg/mL)
13 | O=[N+]([O-])c1cc(COc2nnnn2-c2ccccc2)cc([N+](=O)[O-])c1 | 8 (≈ 2.74 µg/mL) | 32 (≈ 11 µg/mL) | 8 (≈ 2.74 µg/mL) | 125 (≈ 42.8 µg/mL) | 16 (≈ 5.48 µg/mL) | 4 (≈ 1.37 µg/mL) | 16 (≈ 5.48 µg/mL) | 125 (≈ 42.8 µg/mL) | 32 (≈ 11 µg/mL) | 2 (≈ 0.685 µg/mL)
14 | O=[N+]([O-])c1cc(C[S+]([O-])c2nnnn2-c2ccccc2)cc([N+](=O)[O-])c1 (stereo not given) | 125 (≈ 46.8 µg/mL) | 250 (≈ 93.6 µg/mL) | 62 (≈ 23.2 µg/mL) | 125 (≈ 46.8 µg/mL) | 250 (≈ 93.6 µg/mL) | 62 (≈ 23.2 µg/mL) | 250 (≈ 93.6 µg/mL) | 125 (≈ 46.8 µg/mL) | 250 (≈ 93.6 µg/mL) | 62 (≈ 23.2 µg/mL)
